Results: US7649001B2
Numbering of substitutions follows the chain as printed. Where a name gives a salt, the structure may show the parent alone.

Experiments:
[1] = target: T1, LNCaP type mutant androgen receptor (AR) (Homo sapiens, UniProt P10275, T878A); assay: AR-binding inhibition test (LNCaP type); details: read-out: Inhibition rate (%) at 100 nM LNCaP type
T1 sequence (P10275 1-920 T878A): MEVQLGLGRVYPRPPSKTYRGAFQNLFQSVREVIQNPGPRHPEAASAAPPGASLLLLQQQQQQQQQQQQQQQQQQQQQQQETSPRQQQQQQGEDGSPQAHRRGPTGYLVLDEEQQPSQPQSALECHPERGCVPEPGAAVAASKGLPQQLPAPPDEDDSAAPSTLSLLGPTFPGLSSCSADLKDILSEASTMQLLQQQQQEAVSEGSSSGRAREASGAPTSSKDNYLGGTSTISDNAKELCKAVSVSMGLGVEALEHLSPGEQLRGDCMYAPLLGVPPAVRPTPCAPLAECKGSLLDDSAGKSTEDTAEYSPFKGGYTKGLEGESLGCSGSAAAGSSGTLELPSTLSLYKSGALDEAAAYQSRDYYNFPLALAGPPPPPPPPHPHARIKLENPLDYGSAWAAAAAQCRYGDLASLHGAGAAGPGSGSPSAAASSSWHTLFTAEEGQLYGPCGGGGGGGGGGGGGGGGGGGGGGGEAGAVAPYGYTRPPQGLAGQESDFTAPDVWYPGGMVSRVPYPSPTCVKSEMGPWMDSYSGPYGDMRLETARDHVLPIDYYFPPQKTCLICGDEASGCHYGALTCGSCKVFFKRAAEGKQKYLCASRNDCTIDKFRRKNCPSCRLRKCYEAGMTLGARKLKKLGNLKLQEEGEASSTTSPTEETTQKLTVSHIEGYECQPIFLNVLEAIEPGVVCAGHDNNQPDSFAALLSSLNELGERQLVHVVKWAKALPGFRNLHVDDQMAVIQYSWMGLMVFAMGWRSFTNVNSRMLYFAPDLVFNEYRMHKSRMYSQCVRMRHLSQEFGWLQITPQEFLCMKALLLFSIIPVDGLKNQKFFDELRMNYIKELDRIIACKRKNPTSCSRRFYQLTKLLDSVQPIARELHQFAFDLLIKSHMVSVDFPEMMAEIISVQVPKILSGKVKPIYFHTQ

[2] = target: T2, wild type androgen receptor (AR) (Homo sapiens, UniProt P10275); assay: AR-binding inhibition test (wild type); details: read-out: Inhibition rate (%) at 100 nM Wild type
T2 sequence (P10275 1-920): T1 sequence (P10275 1-920 T878A) with A878T

[3] = tested on: Human prostate cancer cell strain LNCaP-FGC; assay: cells; assay type: cell-based; details: 72 h, read-out: Promotion rate (%) on PSA production at 100 nM

| SMILES | inhibition at 0.1 µM [1] [%] | inhibition at 0.1 µM [2] [%] | activation at 0.1 µM [3] [%] | melting point [°C] |
| --- | --- | --- | --- | --- |
| COC[C@H]1CCCN1c1ccc(C#N)c2ccccc12 [Compound 45, 4-[(2R)-2-(methoxymethyl)pyrrolidin-1-yl]-1-naphthonitrile hydrochloride] | 110 | 105 |  |  |
| CC(C)[C@H]1CCCN1c1ccc(C#N)c2ccccc12 [Compound 144, 4-[(2R)-2-isopropyl-1-pyrrolidinyl]-1-naphthonitrile] | 102 | 103 | 87 |  |
| C[C@H]1CCCN1c1ccc(C#N)c2ccccc12 [Compound 85, 4-[(2S)-2-methyl-1-pyrrolidinyl]-1-naphthonitrile] | 99 | 95 | 92 |  |
| N#Cc1ccc(N2CCC(F)C2)c2ccccc12 (stereo not drawn) [Compound 99, 4-(3-fluoro-1-pyrrolidinyl)-1-naphthonitrile] | 92 | 98 | 83 |  |
| N#Cc1ccc(N2CCC(CO)C2)c2ccccc12 (stereo not drawn) [Compound 50, 4-[3-(hydroxymethyl)pyrrolidin-1-yl]-1-naphthonitrile hydrochloride] | 102 | 91 | 88 |  |
| N#Cc1ccc(N2CCCCCC2)c2ccccc12 [Compound 10, 4-(1-azepaneyl)-1-naphthonitrile] | 144 | 112 | 75 |  |
| N#Cc1ccc(N2CCCC2)c2ccccc12 [Compound 1, 4-(1-pyrrolidinyl)-1-naphthonitrile] | 78 | 88 |  |  |
| C=C[C@H]1CCCN1c1ccc(C#N)c2ccccc12 [Compound 81, 4-[(2R)-2-vinyl-1-pyrrolidinyl]-1-naphthonitrile] | 100 | 104 | 98 |  |
| C[C@H]1[C@H](O)CCN1c1ccc(C#N)c2ccccc12 [Compound 113, 4-[(2S,3R)-3-hydroxy-2-methyl-1-pyrrolidinyl]-1-naphthonitrile] | 98 | 97 | 88 |  |
| COC[C@H]1CCCN1c1ccc(C#N)c2ccccc12 (as salt: hydrochloride) [Compound 45, 4-[(2R)-2-(methoxymethyl)pyrrolidin-1-yl]-1-naphthonitrile hydrochloride] |  |  |  | 88 to 89 |
| CC[C@@H]1CCCN1c1ccc(C#N)c2ccccc12 [Compound 84, 4-[(2R)-2-ethyl-1-pyrrolidinyl]-1-naphthonitrile] | 93 | 88 |  |  |
| CC[C@H]1CCCN1c1ccc(C#N)c2ccccc12 [Compound 83, 4-[(2S)-2-ethyl-1-pyrrolidinyl]-1-naphthonitrile] | 102 | 95 | 95 |  |
| N#Cc1ccc(N2CCC(CCO)C2)c2ccccc12 (stereo not drawn) [Compound 141, 4-[3-(2-hydroxyethyl)-1-pyrrolidinyl]-1-naphthonitrile] | 101 | 96 | 87 |  |
| C[C@H]1[C@@H](C(N)=O)CCN1c1ccc(C#N)c2ccccc12 |  |  |  | 204 to 206 |
| CC1(CO)CCCN(c2ccc(C#N)c3ccccc23)C1 (stereo not drawn) [Compound 56, 4-[3-(hydroxymethyl)-3-methyl-1-piperidinyl]-1-naphthonitrile] | 91 | 80 | 96 |  |
| N#Cc1ccc(N2CCC(F)C2)c2ccsc12 (stereo not drawn) [Compound 100, 4-(3-fluoro-1-pyrrolidinyl)-1-benzothiophene-7-carbonitrile] | 92 | 97 | 82 | 151 to 152 |

| SMILES | inhibition at 0.1 µM [1] [%] | inhibition at 0.1 µM [2] [%] | activation at 0.1 µM [3] [%] | melting point [°C] |
| --- | --- | --- | --- | --- |
| CC1CCCN1c1ccc(C#N)c2occc12 (stereo not drawn) [Compound 95, 4-(2-methyl-1-pyrrolidinyl)-1-benzofuran-7-carbonitrile] | 105 | 92 |  | 82 to 83 |
| CO[C@@H]1CCN(c2ccc(C#N)c3ccccc23)[C@H]1C [Compound 139, 4-[(2S,3R)-3-methoxy-2-methyl-1-pyrrolidinyl]-1-naphthonitrile] | 99 | 95 | 73 |  |
| CN1C(=O)CCN1c1ccc(C#N)c2ccccc12 |  |  |  | 192 to 193 |
| C=C[C@@H]1CCCN1c1ccc(C#N)c2ccccc12 [Compound 82, 4-[(2S)-2-vinyl-1-pyrrolidinyl]-1-naphthonitrile] | 94 | 85 |  |  |
| N#Cc1ccc(N2CCCC(CO)C2)c2ccccc12 (stereo not drawn) [Compound 19, 4-[3-(hydroxymethyl)-1-piperidinyl]-1-naphthonitrile] | 91 | 75 | 70 |  |
| CC1CCCN1c1ccc(C#N)c2ccccc12 (stereo not drawn) [Compound 47, 4-(2-methylpyrrolidin-1-yl)-1-naphthonitrile hydrochloride] | 116 | 116 | 88 |  |
| N#Cc1ccc(N2CCC(O)C2)c2ccccc12 (stereo not drawn) [Compound 18, 4-(3-hydroxy-1-pyrrolidinyl)-1-naphthonitrile] | 79 | 96 |  | 138 to 139 |
| C[C@H]1[C@@H](C#N)CCN1c1ccc(C#N)c2ccccc12 |  |  |  | 143 to 145 |
| C[C@H]1[C@@H](CO)CCN1c1ccc(C#N)c2ccccc12 [Compound 107, 4-[(2S,3S)-3-(hydroxymethyl)-2-methyl-1-pyrrolidinyl]-1-naphthonitrile] | 93 | 95 | 95 |  |
| CC1CCCN1c1ccc(C#N)c2sccc12 (stereo not drawn) [Compound 76, 4-(2-methyl-1-pyrrolidinyl)-1-benzothiophene-7-carbonitrile] | 97 | 102 | 85 |  |
| CO[C@@H]1C[C@H](C)N(c2ccc(C#N)c3ccccc23)C1 |  |  |  | 88 to 89 |
| N#Cc1ccc(N2CCCCC2)c2ccccc12 [Compound 3, 4-(1-piperidinyl)-1-naphthonitrile] | 97 | 97 | 90 |  |
| C[C@H]1[C@@H](O)CCN1c1ccc(C#N)c2ccccc12 [Compound 116, 4-[(2S,3S)-3-hydroxy-2-methyl-1-pyrrolidinyl]-1-naphthonitrile] | 94 | 99 | 84 |  |
| N#Cc1ccc(N2CCCCC2)c2ccsc12 [Compound 73, 4-(1-piperidinyl)-1-benzothiophene-7-carbonitrile] | 95 | 95 |  | 99 to 100 |
| C[C@H]1[C@@H](O)CCN1c1ccc(C#N)c2sccc12 [Compound 118, 4-[(2S,3S)-3-hydroxy-2-methyl-1-pyrrolidinyl]-1-benzothiophene-7-carbonitrile] | 95 | 96 | 88 |  |
| N#Cc1c(Br)cc(N2CCCCC2)c2ccccc12 |  |  |  | 179 to 180 |
